Reference: US20100240537A1, “Substituted 6-(alkylbenzylamino)purine derivatives for use as cytokinin receptor antagonists and preparations containing these derivatives” (priority 2007, published 2010)
Read-outs that look alike come from different tables or passages of the source.

How the values were obtained:
[1] = system: erytroid leukemia cell line K-562; experiment: Calcein AM cytotoxicity assay, K-562; assay type: cell-based, human
Excerpt: (§1) Absence of toxic effects against mammalian (especially human) cell lines in a wide concentration range is one of the requirements on compounds intended for use in agriculture. Because toxic compounds negatively influence metabolic processes in cells, many standard cytotoxicity assays are based on measurement of metabolisation rate of various artificial substrates. Resulting product is then quantified e.g. by means of spectrometry. The assays can be easily modified for use in 96-well plates. For evaluation of cytotoxic effect of the novel substituted 6-(alkylbenzylamino)purine derivatives of this invention, a microtiter assay based on quantification of metabolisation of Calcein AM was used. The assay is widely used in drug screening programs and in chemosensitivity testing. In live cells, Calcein AM is enzymatically hydrolysed and accumulation of resulting calcein is manifested by green fluorescence.
(§2) The cells were maintained in Nunc/Corning 80 cm^2 plastic tissue culture flasks and cultured in cell culture medium (DMEM with 5 g/l glucose, 2 mM glutamine, 100 U/ml penicillin, 100 μg/ml streptomycin, 10% fetal calf serum and sodium bicarbonate).
(§3) The cell suspensions were prepared and diluted according to the particular cell type and the expected target cell density (10^4 cells per well based on cell growth characteristics) and pippetted (80 μl) into 96-well plates. Inoculates were allowed a pre-incubation period of 24 hours at 37° C., 100% humidity and 5% CO2 for stabilisation. Tested compounds were added in total volume of 20 μl of water at time zero. Usually, test compound was evaluated at six 3-fold dilutions. In routine testing, the highest concentration tested was 100 μM, the eventual changes depended on physico-chemical characteristics of the respective compound. All drug concentrations were tested in triplicates. Incubations of cells with the test compounds lasted for 72 hours at 37° C., in 5% CO2 atmosphere and 100% humidity. At the end of incubation period Calcein AM (Molecular Probes) in PBS was added into final concentration of 1 μg/ml. After another 1 hour of incubation fluorescence (FD) was measured with the Labsystem FIA Reader Fluoroscan Ascent (UK). Growth inhibition (GI) was estimated using the following equitation: GI=(mean FDdrug exposed wells−mean FDblank)/(mean FDcontrol wells−mean FDblank)×100%.

[2] = system: osteosarcoma cell line HOS; experiment: Calcein AM cytotoxicity assay, HOS; assay type: cell-based, human; conditions: 72 hours
Excerpt: as §1, §2, §3

[3] = system: Human diploid fibroblasts SNF25; experiment: MTT viability assay on human diploid fibroblasts; assay type: cell-based; conditions: SNF25 passage 19, 72 hours, read-out: IC50 (reduction in mitochondrial activity, MTT)
Description: MTT is a standard colorimetric assay for measurement of proliferation and survival of the cells. Yellow MTT is reduced into violet formazan in metabolically active cells. The amount of formazan is measured by spectrometry. Human diploid fibroblasts SNF25 (passage 19) were seeded in 96-well plate (5000 cells per well). After 6 hours, the cultivation medium (DMEM containing 5 g/l glucose, 2 mM glutamin, 100 U/ml penicillin, 100 μg/ml streptomycin and 10% fetal calf serum) was removed and fresh medium containing a test compound in concentration range of 0-100 μM was added. The concentration was adjusted in cases of compounds with limited solubility. Each concentration was tested in 5 replicates. MTT was added to the cells after 72 hours into final concentration of 0.5 mg/ml. Incubation time was 3 hours. Resulting MTT was disolved in DMSO and absorbance was measured. The cytotoxic effect was estimated as IC=(Awells with compounds/Acontrol wells)×100%.

melanoma cell line G-361 = experiment: Calcein AM cytotoxicity assay, G-361; assay type: cell-based, human
Excerpt: as §1, §2, §3

[4] = system: cytokinin receptors CRE1/AHK4 and AHK3; experiment: Binding assay with membranes of E. coli expressing cytokinin receptors, competition with 3HtZ; design: species or system Arabidopsis; conditions: negative control, 1000-fold higher concentration than compound 8
Description: Isolation of E. coli membranes and binding assays were carried out as previously described by Romanov et al. (Romanov et al. Analytical Biochemistry 347:129-134, 2005).

[5] = system: human diploid fibroblasts BJ; experiment: Calcein AM cytotoxicity assay, BJ; assay type: cell-based; conditions: 72 hours
Excerpt: as §1, §2, §3

[6] = system: breast carcinoma cell line MCF-7; experiment: Calcein AM cytotoxicity assay, MCF-7; assay type: cell-based, human
Excerpt: as §1, §2, §3

AHK3 = target: T1, AHK3 (Arabidopsis thaliana, UniProt Q9C5U1); experiment: Activation of cytokinin receptor AHK3 in E. coli KMI001 (β-galactosidase reporter); assay type: cell-based; conditions: E. coli KMI001 pSTV28-AHK3, 28 h incubation; n.i. means without interaction; read-out: EC50 AHK3 (activation of cytokinin receptor)
T1 construct: expressed in transfected cells; host or cells: Escherichia coli KMI001, plasmid pSTV28-AHK3
T1 sequence (Q9C5U1 1-1036): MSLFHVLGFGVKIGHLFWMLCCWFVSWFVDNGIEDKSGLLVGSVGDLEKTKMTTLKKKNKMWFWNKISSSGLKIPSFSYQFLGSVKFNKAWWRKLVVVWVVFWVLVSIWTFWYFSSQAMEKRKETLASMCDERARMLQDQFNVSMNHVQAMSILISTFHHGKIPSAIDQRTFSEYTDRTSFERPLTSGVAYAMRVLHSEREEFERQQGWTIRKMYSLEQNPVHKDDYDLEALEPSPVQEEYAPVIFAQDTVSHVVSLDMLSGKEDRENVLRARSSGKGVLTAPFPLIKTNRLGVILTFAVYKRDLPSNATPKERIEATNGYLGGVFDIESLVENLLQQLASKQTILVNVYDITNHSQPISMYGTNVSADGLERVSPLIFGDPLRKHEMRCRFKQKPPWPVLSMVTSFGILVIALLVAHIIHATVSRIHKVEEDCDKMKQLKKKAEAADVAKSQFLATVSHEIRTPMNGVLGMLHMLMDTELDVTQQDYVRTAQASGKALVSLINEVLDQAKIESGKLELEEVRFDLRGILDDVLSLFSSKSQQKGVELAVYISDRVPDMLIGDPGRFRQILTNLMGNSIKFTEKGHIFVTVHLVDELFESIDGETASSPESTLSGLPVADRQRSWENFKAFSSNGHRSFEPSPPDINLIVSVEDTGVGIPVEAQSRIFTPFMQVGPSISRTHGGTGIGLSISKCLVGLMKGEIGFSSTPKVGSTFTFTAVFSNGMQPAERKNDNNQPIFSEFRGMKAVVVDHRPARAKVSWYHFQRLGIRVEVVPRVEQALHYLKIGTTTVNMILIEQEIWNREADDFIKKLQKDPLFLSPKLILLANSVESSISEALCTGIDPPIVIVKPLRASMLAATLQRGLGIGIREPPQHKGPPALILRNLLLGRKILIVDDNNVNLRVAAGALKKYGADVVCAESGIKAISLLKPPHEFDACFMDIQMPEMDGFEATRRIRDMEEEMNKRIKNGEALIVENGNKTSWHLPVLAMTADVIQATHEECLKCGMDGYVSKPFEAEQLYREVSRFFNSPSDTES
Description: (§4) Escherichia coli strains KMI001 harbouring the plasmid pIN-III-AHK4 or pSTV28-AHK3 were grown overnight at 25° C. in M9 media enriched with 0.1% casamino acids to OD600˜1. The preculture was diluted 1:600 in 1 ml M9 medium containing 0.1% casamino acids and 1 μl stock solution of either the tested compound (10^−7 M−5×10^−5 M) or solvent control (DMSO, ethanol, methanol) were added. The cultures were further grown at 25° C. in microtiter plate, 200 μl per well. […] The cultures were centrifuged and 50 μl aliquots of the supernatant were transferred to microtiter plate containing 2 μl 50 mM 4-methyl umbelliferyl galactoside which was subsequently incubated for 1 h at 37° C. The reaction was stopped by adding 100 μl 0.2 M Na2CO3. Fluorescence was measured using a Fluoroscan Ascent (Labsystems, Finland) at the excitation and emission wavelengths of 365 and 460 nm, respectively. The OD600 of remaining culture was determined and β-galactosidase activity was calculated as nmol 4-methylumbelliferone×OD600^−1×h^−1.
(§5) The EC50 value, the compound concentration activating the receptor to 50%, was calculated from the obtained dose response curves. The compound functioning as cytokinin antagonists should not activate cytokinin signalling pathway. The values shown in Table 2 are means of three replicates and the entire test was repeated at least twice.

CRE1/AHK4 = target: T2, CRE1/AHK4 (Arabidopsis thaliana, UniProt Q9C5U0); experiment: Activation of cytokinin receptor CRE1/AHK4 in E. coli KMI001 (β-galactosidase reporter); assay type: cell-based; conditions: E. coli KMI001 pIN-III-AHK4, 17 h incubation; n.i. means without interaction; read-out: EC50 CRE1/AHK4 (activation of cytokinin receptor)
T2 construct: expressed in transfected cells; host or cells: Escherichia coli KMI001, plasmid pIN-III-AHK4
T2 sequence (Q9C5U0 whole entry): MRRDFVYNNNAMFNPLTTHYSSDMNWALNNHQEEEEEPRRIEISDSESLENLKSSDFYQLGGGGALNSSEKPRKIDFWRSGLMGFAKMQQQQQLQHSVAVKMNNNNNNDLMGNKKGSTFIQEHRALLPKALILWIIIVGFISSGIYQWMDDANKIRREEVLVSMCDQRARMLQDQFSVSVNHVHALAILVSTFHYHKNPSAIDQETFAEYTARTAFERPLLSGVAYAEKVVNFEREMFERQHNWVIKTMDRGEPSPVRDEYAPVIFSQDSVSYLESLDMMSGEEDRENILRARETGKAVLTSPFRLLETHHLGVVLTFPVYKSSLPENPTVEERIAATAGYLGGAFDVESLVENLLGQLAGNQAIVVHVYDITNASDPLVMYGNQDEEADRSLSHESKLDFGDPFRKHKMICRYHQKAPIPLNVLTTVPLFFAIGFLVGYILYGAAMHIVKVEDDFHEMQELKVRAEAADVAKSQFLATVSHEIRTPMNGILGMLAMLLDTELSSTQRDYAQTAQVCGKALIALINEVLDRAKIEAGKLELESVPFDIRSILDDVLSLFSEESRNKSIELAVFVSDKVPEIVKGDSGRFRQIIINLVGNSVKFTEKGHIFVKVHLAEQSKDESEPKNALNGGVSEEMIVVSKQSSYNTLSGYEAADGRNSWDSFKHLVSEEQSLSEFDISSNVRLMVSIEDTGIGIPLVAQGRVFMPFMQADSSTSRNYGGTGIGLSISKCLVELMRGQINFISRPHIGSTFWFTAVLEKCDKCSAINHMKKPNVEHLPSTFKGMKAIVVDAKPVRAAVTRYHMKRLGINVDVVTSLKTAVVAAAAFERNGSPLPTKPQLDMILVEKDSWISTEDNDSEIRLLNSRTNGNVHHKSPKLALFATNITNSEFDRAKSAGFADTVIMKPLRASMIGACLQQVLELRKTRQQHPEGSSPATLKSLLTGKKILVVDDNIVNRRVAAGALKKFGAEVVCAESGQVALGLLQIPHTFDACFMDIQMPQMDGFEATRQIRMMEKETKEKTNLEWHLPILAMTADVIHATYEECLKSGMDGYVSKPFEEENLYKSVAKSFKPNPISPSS
Description: as §4, §5

| SMILES | GI50 ([1]; Homo sapiens, K562, 72 hours) [µM] | GI50 ([2]; Homo sapiens) [µM] | IC50 ([3]; Homo sapiens, Fibroblast) [µM] | GI50 (melanoma cell line G-361; Homo sapiens, G-361, 72 hours) [µM] | effect on binding of 3HtZ [4] | GI50 ([5]; Homo sapiens, Fibroblast) [µM] | GI50 ([6]; Homo sapiens, MCF7, 72 hours) [µM] | GI50 ([1]; 72 hours) [µM] | GI50 [2] [µM] | IC50 [3] [µM] | GI50 (melanoma cell line G-361; 72 hours) [µM] | GI50 [5] [µM] | GI50 ([6]; 72 hours, read-out: GI50 MCF7) [µM] | EC50 (AHK3) [µM] | EC50 (CRE1/AHK4) [µM] |
| --- | --- | --- | --- | --- | --- | --- | --- | --- | --- | --- | --- | --- | --- | --- | --- |
| Nc1ncnc2nc[nH]c12 [adenine] | > 100 | > 100 | > 100 | > 100 | not effective at all | > 100 | > 100 |  |  |  |  |  |  |  |  |
| CC(C)=CCNc1ncnc2nc[nH]c12 [isopentenyladenine] |  |  |  |  |  |  |  | > 100 | > 100 | > 100 | > 100 | > 100 | > 100 |  |  |
| c1coc(CNc2ncnc3[nH]cnc23)c1 [kinetin] | > 100 | > 100 | > 100 | > 100 |  | > 100 | > 100 |  |  |  |  |  |  |  |  |
| Oc1cccc(CNc2ncnc3nc[nH]c23)c1 [meta-topolin] |  |  |  |  |  |  |  | > 100 | > 100 | > 100 | > 100 | > 100 | > 100 |  |  |
| Oc1ccccc1CNc1ncnc2nc[nH]c12 [ortho-topolin] |  |  |  |  |  |  |  | > 100 | > 100 | > 100 | > 100 | > 100 | > 100 |  |  |
| C/C(=C\CNc1ncnc2nc[nH]c12)CO [trans-zeatin] |  |  |  |  |  |  |  | > 100 | > 100 | > 100 | > 100 | > 100 | > 100 | 2.1 | 0.9 |
